# Records with an inconclusive call do not appear. Activity calls are given as the source filed them. The rule behind the calls is not given here.
# Tested on: M. tuberculosis H37Rv growth inhibition
# Test: Confirmatory growth inhibition assay against Mycobacterium tuberculosis H37Rv, potency (AID 1949);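 note: bacteria grown 7 days with compound before Alamar blue readout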
row,Compound,IC50
1,O=S(=O)(Nc1cc(Br)c(O)c2ccccc12)c1ccc(F)cc1,3.06 µg/mL
2,CC(NC(=O)c1ccc([N+](=O)[O-])o1)C12CC3CC(CC(C3)C1)C2 (stereo not drawn),4.46 µg/mL
3,CN1CCN(C(=S)NC(=O)c2ccc(-c3ccccc3)cc2)CC1,1.04 µg/mL
4,OCc1cn(-c2ccccc2)nc1-c1ccc2c(c1)OCCO2,6.9 µg/mL
5,CCc1ccc(C2=CC(=O)c3ccccc3C2=O)cc1,5.94 µg/mL
6,COC(=O)COc1ccc(NC(=O)c2ccccc2Br)cc1,1.17 µg/mL
7,Cc1ccc(NC(=O)COc2cccc(C=O)c2)cc1Cl,5.9 µg/mL
8,CCOC(=O)c1c(-c2ccccc2)oc2ccc(OC(=O)c3cccs3)cc12,> 50 µg/mL (inactive)
9,O=C(Nc1nc2ccccc2[nH]1)c1cccc(Cl)c1,10.4 µg/mL
10,CCc1ccc(OCC(=O)Nc2cccc(F)c2)cc1,1.74 µg/mL
11,Cc1ccc2[nH]c3c(c2c1)CCCC3NCCCOc1ccc(F)cc1 (stereo not drawn),1.7 µg/mL
12,CCOc1cc(CNC(C)C23CC4CC(CC(C4)C2)C3)cc(Cl)c1OCC(=O)NC(C)(C)C (stereo not drawn),3.06 µg/mL
13,CCc1ccc(-c2nn(-c3ccccc3)cc2CO)cc1,5.36 µg/mL
14,CC(C)OC(=O)c1c2c(n3ccccc13)C(=O)c1ccccc1C2=O,11.4 µg/mL
15,CSc1ccc(/C=C/c2nc(-c3ccccc3O)n[nH]2)cc1,4.5 µg/mL
16,CCC(C)c1ccc(O)c(NC(=S)NC(=O)c2cccnc2)c1 (stereo not drawn),< 0.1 µg/mL
17,COC(=O)c1ccc(COC(=O)c2ccc(Cl)cc2)cc1,> 50 µg/mL (inactive)
18,COc1ccc(CCNC(=O)c2ccc(C#CC(C)(C)O)s2)cc1,< 0.1 µg/mL
19,CC(C)(C)c1ccc(C(=O)Nc2ccc(NC(=S)NC(=O)c3cccs3)cc2)cc1,0.46 µg/mL
20,C/C(=N/N=C1\NC(=O)C(Cc2ccc(Cl)cc2)S1)c1ccc(F)cc1 (stereo not drawn),19 µg/mL

row,Compound,IC50
1,O=C(CC12CC3CC(CC(C3)C1)C2)NC(=S)Nc1cccc(Br)c1,> 50 µg/mL (inactive)
2,c1ccc(-n2nnnc2Oc2cccc3cccnc23)cc1,5.68 µg/mL
3,CCC(C)NCCOc1ccc(C(C)(C)c2ccccc2)cc1 (stereo not drawn),0.91 µg/mL
4,CCOC(=O)c1ccc(COC(=O)c2cccc([N+](=O)[O-])c2)cc1,1.11 µg/mL
5,CCOC(=O)c1c(NC(=S)NC2CCN(Cc3ccccc3)CC2)sc(C)c1-c1ccccc1,1.38 µg/mL
6,CCCc1ccc(OCC(=O)Nc2ccc(Cl)cc2Cl)cc1,2.86 µg/mL
7,COc1ccc(OC(=O)c2sc3ccccc3c2Cl)cc1,> 50 µg/mL (inactive)
8,Cc1cc(OCC(=O)NC2C3CC4CC(C3)CC2C4)cc(C)c1Br (stereo not drawn),1.45 µg/mL
9,Cc1ccc(OC(=O)c2ccc3nc(C)sc3c2)cc1,> 50 µg/mL (inactive)
10,Oc1ccc(-c2nc3cc4ccccc4cc3nc2-c2ccccc2)cc1,0.96 µg/mL
11,CC(C)(C)c1ccc(C(=O)NC(=S)NCc2cccnc2)cc1,2.47 µg/mL
12,CCOC(=O)COc1ccc(S(=O)(=O)N2CCC(C)CC2)cc1,1.35 µg/mL
13,O=C(NC12CC3CC(CC(C3)C1)C2)N1CCN(c2cccc(Cl)c2)CC1,8.14 µg/mL
14,O=C(CC12CC3CC(CC(C3)C1)C2)Nc1ccc(F)c(Cl)c1,3.02 µg/mL
15,O=C(Oc1ccccc1)c1ccc(S(=O)(=O)N2CCCCC2)cc1,0.73 µg/mL
16,O=C(Nc1ccc(Cc2ccncc2)cc1)c1ccc(-c2cccc(C(F)(F)F)c2)o1,12 µg/mL
17,CCCCc1cc(=O)oc2cc(OCC(=O)OCc3ccccc3)c(Cl)cc12,< 0.1 µg/mL
18,CC(C)Oc1ccc(Nc2ncnc3ccc(Br)cc23)cc1,2.5 µg/mL
19,CCC(C)Oc1ccc(C(=O)NC(=S)Nc2ccc3c(c2)COC3=O)cc1 (stereo not drawn),0.55 µg/mL
20,COc1ccc(C(=O)CCN2CCN(c3ccccc3F)CC2)cc1,5.64 µg/mL

row,Compound,IC50
1,Fc1cc(Br)cc2c1NC(c1cccnc1)C1CC=CC21 (stereo not drawn),> 50 µg/mL (inactive)
2,O=C(CCSc1nnc(-c2ccccc2)o1)Nc1ccc(F)cc1,5.2 µg/mL
3,O=C1C=C(c2ccccc2)C(=O)c2ccccc21,2.68 µg/mL
4,COC(=O)COc1ccc2cc(-c3ccc(Cl)cc3)c(=O)oc2c1,18.8 µg/mL
5,Cc1ccc(CSCC(=O)Nc2ccc(Cl)c(Cl)c2)cc1,3.06 µg/mL
6,CCN(CC)CCSc1nc2sc3c(c2c(=O)n1-c1ccc(OC)cc1)CCCC3,> 50 µg/mL (inactive)
7,Cc1ccc2nc(/C(C#N)=C\c3c[nH]c4ccc(Br)cc34)[nH]c2c1,0.62 µg/mL
8,Cc1ccccc1N1C(=O)NC(=O)/C(=C\c2ccc([N+](=O)[O-])s2)C1=O,6.22 µg/mL
9,c1ccc(COc2ccc(OCCCCn3ccnc3)cc2)cc1,5.37 µg/mL
10,COC(=O)c1ccc(CSc2nnc(-c3ccccc3)o2)o1,> 50 µg/mL (inactive)
11,CN(C)CC1CC(C(C)(C)C)CCC1=O (stereo not drawn),2.45 µg/mL
12,O=C(NCc1ccc(Cl)cc1)c1ccccc1-c1ccccc1,13.2 µg/mL
13,CC(C)(C)c1ccc(OCCNC(=O)c2cccc(Br)c2)cc1,5.19 µg/mL
14,CN(CCOCCOc1ccc(I)cc1)Cc1ccccc1,6.75 µg/mL
15,CCC(=O)Oc1cccc2ccc(/C=C/c3ccc(C(=O)OC)cc3)nc12,3.21 µg/mL
16,O=[N+]([O-])c1c(Nc2ccccc2)[nH]c2ccccc12,9.27 µg/mL
17,COC(=O)COc1cccc(NC(=O)c2cccc(C)c2)c1,2.85 µg/mL
18,O=C(Oc1ccccc1)c1cccc(COC(=O)c2cc3ccccc3oc2=O)c1,15.8 µg/mL

# Reference: PubChem BioAssay AID1949 (Southern Research Institute, 2009)
